Laboratory results as given in ChEMBL document CHEMBL1177855, “Synthesis of some N-alkyl substituted urea derivatives as antibacterial and antifungal agents” (2010).
In brackets after ≈: the same amount, converted by molar mass.

Experiments:
Format in all cases: functional
[1] = tested on: Escherichia coli; experiment: Antibacterial activity against Escherichia coli ATCC 35218 after 24 hrs by MTT assay; conditions: ATCC 35218, 24 h
[2] = tested on: Pseudomonas aeruginosa; experiment: Antibacterial activity against Pseudomonas aeruginosa ATCC 13525 after 24 hrs by MTT assay; conditions: ATCC 13525, 24 h
[3] = tested on: Bacillus subtilis; experiment: Antibacterial activity against Bacillus subtilis ATCC 6633 after 24 hrs by MTT assay; conditions: ATCC 6633, 24 h
[4] = tested on: Staphylococcus aureus; experiment: Antibacterial activity against Staphylococcus aureus ATCC 6538 after 24 hrs by MTT assay; conditions: ATCC 6538, 24 h
[5] = tested on: Aspergillus niger; experiment: Antifungal activity against Aspergillus niger ATCC 16404 after 24 hrs by MTT assay; conditions: ATCC 16404, 24 h
[6] = tested on: Trichophyton rubrum; experiment: Antifungal activity against Trichophyton rubrum ATCC 10218 after 24 hrs by MTT assay; conditions: ATCC 10218, 24 h

Compound | MIC [1] | MIC [2] | MIC [3] | MIC [4] | MIC [5] | MIC [6]
CCN(CC)C(=O)Nc1ccc(Cl)cc1Cl | > 50 µg/mL | > 50 µg/mL | > 50 µg/mL | > 50 µg/mL | 45.2 µg/mL (≈ 173 µM) | > 50 µg/mL
CC(C)c1ccc(NC(=O)N2CCOCC2)cc1 | 7.2 µg/mL (≈ 29 µM) | 8 µg/mL (≈ 32.2 µM) | > 50 µg/mL | > 50 µg/mL | > 50 µg/mL | 20.7 µg/mL (≈ 83.4 µM)
O=C(Nc1ccc(F)cc1)N1CCOCC1 | 1.6 µg/mL (≈ 7.14 µM) | 6.2 µg/mL (≈ 27.6 µM) | > 50 µg/mL | > 50 µg/mL | > 50 µg/mL | 3.5 µg/mL (≈ 15.6 µM)
O=C(Nc1ccccc1F)N1CCOCC1 | 2.1 µg/mL (≈ 9.37 µM) | 12.5 µg/mL (≈ 55.7 µM) | 1.6 µg/mL (≈ 7.14 µM) | > 50 µg/mL | > 50 µg/mL | 3.1 µg/mL (≈ 13.8 µM)
O=C(Nc1ccc(F)cc1F)N1CCOCC1 | 4.2 µg/mL (≈ 17.3 µM) | > 50 µg/mL | > 50 µg/mL | > 50 µg/mL | > 50 µg/mL | 18.2 µg/mL (≈ 75.1 µM)
O=C(Nc1ccc(Cl)cc1Cl)N1CCOCC1 | 12.5 µg/mL (≈ 45.4 µM) | 50 µg/mL (≈ 182 µM) | > 50 µg/mL | > 50 µg/mL | > 50 µg/mL | > 50 µg/mL
O=C(Nc1ccc(Br)cc1)N1CCOCC1 | 3.1 µg/mL (≈ 10.9 µM) | 37.1 µg/mL (≈ 130 µM) | > 50 µg/mL | > 50 µg/mL | > 50 µg/mL | > 50 µg/mL
O=C(Nc1ccc2c(c1)Cc1ccccc1-2)N1CCOCC1 | > 50 µg/mL | 31.5 µg/mL (≈ 107 µM) | 40.2 µg/mL (≈ 137 µM) | > 50 µg/mL | > 50 µg/mL | 31.2 µg/mL (≈ 106 µM)
O=C(Nc1ccccc1)N1CCOCC1 | 6.2 µg/mL (≈ 30.1 µM) | 22 µg/mL (≈ 107 µM) | > 50 µg/mL | > 50 µg/mL | > 50 µg/mL | > 50 µg/mL
Cc1ccc(NC(=O)N2CCOCC2)cc1 | 7.2 µg/mL (≈ 32.7 µM) | > 50 µg/mL | > 50 µg/mL | > 50 µg/mL | > 50 µg/mL | 38.4 µg/mL (≈ 174 µM)
O=C(Nc1ccccc1Cl)N1CCOCC1 | 3.1 µg/mL (≈ 12.9 µM) | > 50 µg/mL | 3.1 µg/mL (≈ 12.9 µM) | > 50 µg/mL | > 50 µg/mL | > 50 µg/mL
COc1ccc(NC(=O)N2CCOCC2)cc1 | 7.5 µg/mL (≈ 31.7 µM) | 12.5 µg/mL (≈ 52.9 µM) | > 50 µg/mL | > 50 µg/mL | > 50 µg/mL | 12.5 µg/mL (≈ 52.9 µM)
O=C(Nc1cc(Cl)cc(Cl)c1)N1CCOCC1 | 12.5 µg/mL (≈ 45.4 µM) | 8.8 µg/mL (≈ 32 µM) | 6.2 µg/mL (≈ 22.5 µM) | > 50 µg/mL | > 50 µg/mL | 12.5 µg/mL (≈ 45.4 µM)
O=C(N1CCOCC1)N1CCCc2ccccc21 | > 50 µg/mL | 8.2 µg/mL (≈ 33.3 µM) | > 50 µg/mL | > 50 µg/mL | 12.5 µg/mL (≈ 50.7 µM) | 12.5 µg/mL (≈ 50.7 µM)
O=C(Nc1cccc2cccnc12)N1CCOCC1 | > 50 µg/mL | 25.3 µg/mL (≈ 98.3 µM) | 38.7 µg/mL (≈ 150 µM) | > 50 µg/mL | > 50 µg/mL | 40.8 µg/mL (≈ 159 µM)
CCN(CC)C(=O)Nc1ccc(F)cc1 | 25 µg/mL (≈ 119 µM) | 12.5 µg/mL (≈ 59.5 µM) | 6.2 µg/mL (≈ 29.5 µM) | > 50 µg/mL | > 50 µg/mL | 32.6 µg/mL (≈ 155 µM)
CCN(CC)C(=O)Nc1ccccc1F | 25 µg/mL (≈ 119 µM) | > 50 µg/mL | 12.5 µg/mL (≈ 59.5 µM) | > 50 µg/mL | > 50 µg/mL | > 50 µg/mL
CCN(CC)C(=O)Nc1ccc(F)cc1F | 25 µg/mL (≈ 110 µM) | > 50 µg/mL | 12.5 µg/mL (≈ 54.8 µM) | > 50 µg/mL | > 50 µg/mL | > 50 µg/mL
CCN(CC)C(=O)Nc1ccc(C(C)C)cc1 | > 50 µg/mL | 12.5 µg/mL (≈ 53.3 µM) | > 50 µg/mL | > 50 µg/mL | > 50 µg/mL | > 50 µg/mL
CCN(CC)C(=O)Nc1ccc(Br)cc1 | 25 µg/mL (≈ 92.2 µM) | > 50 µg/mL | > 50 µg/mL | > 50 µg/mL | 23 µg/mL (≈ 84.8 µM) | > 50 µg/mL
NC[C@H]1O[C@H](O[C@H]2[C@H](O)[C@@H](O[C@H]3O[C@H](CO)[C@@H](O)[C@H](N)[C@H]3O)[C@H](N)C[C@@H]2N)[C@H](O)[C@@H](O)[C@@H]1O [KANAMYCIN] | 3.1 µg/mL (≈ 6.4 µM) | 3.1 µg/mL (≈ 6.4 µM) | 0.4 µg/mL (≈ 0.826 µM) | 1 µg/mL (≈ 2.06 µM) | – | –
CC(=O)N1CCN(c2ccc(OCC3COC(Cn4ccnc4)(c4ccc(Cl)cc4Cl)O3)cc2)CC1 (stereo not given) [KETOCONAZOLE] | – | – | – | – | 7.8 µg/mL (≈ 14.7 µM) | 3.9 µg/mL (≈ 7.34 µM)
CC1(C)S[C@@H]2[C@H](NC(=O)Cc3ccccc3)C(=O)N2[C@H]1C(=O)O [PENICILLIN G] | > 50 µg/mL | 6.2 µg/mL (≈ 18.5 µM) | 1.6 µg/mL (≈ 4.78 µM) | 2 µg/mL (≈ 5.98 µM) | – | –
